According to US20020106375A1, “Non-cytolytic soluble factor from activated-expanded CD4 cells” (priority 2000, published 2002):
Where a name gives a salt, the structure may show the parent alone. Read-outs that look alike come from different tables or passages of the source.

Experiments:
[1] = biological target: T1, topoisomerase I-DNA complexes (Homo sapiens, UniProt P11387); test: Topoisomerase I-DNA complexes in LS513 cells; type: cell-based; settings: factor 25%, 50 μM irinotecan
T1 construct: endogenous in cells; host or cells: LS513
T1 sequence (P11387 1-765): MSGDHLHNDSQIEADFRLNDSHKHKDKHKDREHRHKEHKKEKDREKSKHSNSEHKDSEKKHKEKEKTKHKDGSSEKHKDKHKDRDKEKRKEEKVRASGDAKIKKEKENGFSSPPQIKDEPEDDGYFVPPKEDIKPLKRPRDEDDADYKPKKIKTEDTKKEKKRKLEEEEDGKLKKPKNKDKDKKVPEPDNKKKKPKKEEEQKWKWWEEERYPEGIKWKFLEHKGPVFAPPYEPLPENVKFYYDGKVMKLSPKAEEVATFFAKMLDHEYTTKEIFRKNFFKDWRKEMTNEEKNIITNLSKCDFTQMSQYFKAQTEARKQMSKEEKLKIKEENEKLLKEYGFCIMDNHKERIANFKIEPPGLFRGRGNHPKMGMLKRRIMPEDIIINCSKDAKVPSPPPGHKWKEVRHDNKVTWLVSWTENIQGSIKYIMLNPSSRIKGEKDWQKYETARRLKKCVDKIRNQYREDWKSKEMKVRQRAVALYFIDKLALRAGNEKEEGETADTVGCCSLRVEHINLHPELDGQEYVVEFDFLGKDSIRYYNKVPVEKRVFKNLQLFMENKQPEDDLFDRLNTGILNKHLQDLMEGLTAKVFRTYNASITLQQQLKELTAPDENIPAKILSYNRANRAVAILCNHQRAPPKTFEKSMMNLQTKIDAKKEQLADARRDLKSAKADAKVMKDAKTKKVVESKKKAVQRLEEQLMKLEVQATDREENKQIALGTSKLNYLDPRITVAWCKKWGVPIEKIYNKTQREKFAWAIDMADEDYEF
Description: Three different concentrations of DNA (recovered from the DNA peak fractions of each CsCI gradient) were spotted onto the membrane.
The blot was placed on a phosphorimager and signal strengths from the 2 μg slots were quantified. Based upon comparison to a known standard of purified topoisomerase I on the same blot, the signals are expressed as ng or topoisomerase I per ml of DNA=no additions (i.e., untreated). The data are quantified in Table 22 and FIG. 35.

[2] = tested on: FasR (CD95) of LS513 cells; test: FasR (CD95) expression by flow cytometry, LS513; type: cell-based, human
Description: (§1) Flow cytometry was used to assess FasR expression and cell cycle. Analysis of cell cycle was performed using propidium iodide on a Coulter EPICS Elite flow cytometer (Coulter Corporation) equipped with a 488 nm, 15 mW, air-cooled Argon laser. […] Optical laser alignment calibration of the flow cytometer was performed using Coulter's DNA-Check EPICS alignment fluorosphere beads with coefficient of variations routinely less than 2%. PI fluorescent light emission was collected through a 610 nm, long-pass transmission filter. PI signal was measured in linear mode and extended analysis of DNA content was performed using the ModFit LT program (Verity Software House, Inc., Topsham, Me.). Data are presented as the percentage of cells in G1-G0, S and G2-M.

[3] = tested on: caspase-3; test: Caspase-3 activity, colorimetric, colorectal cancer cells; type: cell-based, human
Description: (§2) Caspase-3 and caspase-8 activities were determined using a calorimetric assay kit (R&D Systems, Inc., Minneapolis, Minn.). Assays were conducted according to the instructions of the manufacturer.

[4] = tested on: caspase-8; test: Caspase-8 activity, colorimetric, colorectal cancer cells; type: cell-based, human
Description: as §2

[5] = tested on: FasR (CD95) of SW480 cells; test: FasR (CD95) expression by flow cytometry, SW480; type: cell-based, human
Description: as §1

[6] = tested on: Fas (CD95) of SKBR3 cells; test: Fas (CD95) expression by flow cytometry, SKBR3; type: cell-based, human; settings: tamoxifen 10 μg/ml
Description: as §1, with “assess Fas” for “assess FasR”, “cycle. Cells were reacted sequentially with mAb to Fas (CD95) and then with a fluorescenated goat anti-mouse antibody, according to the recommendations of the manufacturer. Percent fluorescent cells and fluorescence intensity was determined using an Epics Elite cytofluorograph (Coulter Corp.). All samples were compared to their isotype-matched controls.” for “cycle.”, “cytometer” for “cytometer (Coulter Corporation)”, “using” for “using the”, “LT program, as described above.” for “LT program (Verity Software House, Inc., Topsham, Me.).”, “G1-G0, S,” for “G1-G0, S”

[7] = tested on: SKBR3 cells; test: Tumor proliferation assay (MTS), SKBR3; type: cell-based, human; settings: tamoxifen 10 μg/ml; for inhibition at 10 µg/mL: Homo sapiens, SKBR3, Factor C 5% v/v, read-out: Fractional Inhibition
Description: (§3) MTS was added for the final 5 hours of culture as recommended by the manufacturer (CeiTiter 96 AQueous, Non-Radioactive Cell Proliferation Assay; Promega, Madison, Wis.), and the absorbence was read in a DigiScan reader (ASYS Hitech, Austria) at A492 nm. Samples were evaluated in triplicate. Tumor cells cultured in maintenance media with no addition and the maintenance media alone were used as controls. Fractional inhibition was determined by the formula set forth above.
The combined effects of the drugs and supernatants were analyzed by the median effect method of Chou and Talalay using CalcuSyn software (see above). […] According to this method, “synergy” is indicated by a Cl of less than 1, “addition” by a Cl equal to 1, and “antagonism” by a Cl greater than 1. A Cl of less than 0.3 is considered to represent “strong synergism”, and a Cl greater than 3.3 is considered to represent “strong antagonism”.

[8] = tested on: caspase-8; test: Caspase-8 activity, SKBR3; type: cell-based, human; settings: Factor C 5% v/v, tamoxifen 10 μg/ml
Description: (§4) Caspase-3 and caspase-8 activities were determined using a calorimetric assay kit (R&D Systems, Inc., Minneapolis, Minn.). Assays were conducted according to the instructions of the manufacturer. Protein kinase C, Prote3in kinase c alpha and delta levels were determined by immunoprecipitation and Western blotting, as previously described. Hofmeister, et al., “Clustered CD20 induced apoptosis: src-family kinase, the proximal regulator of tyrosine phosphorylation, calcium influx, and caspase 3-dependent apoptosis”, Blood Cells Mol Dis, 26:133-43, 2000.

[9] = tested on: caspase-3; test: Caspase-3 activity, SKBR3; type: cell-based, human; settings: Factor C 5% v/v, tamoxifen 10 μg/ml
Description: as §4

[10] = tested on: LS513 cells; test: Proliferation assay with median effect analysis, LS513; type: cell-based; settings: Homo sapiens, LS-513, topotecan 1 μg/ml, supernatant 25% v/v, antibodies 10 μg/ml, read-out: Fractional Inhibition
Description: as §3, with “(CelTiter,” for “(CeiTiter”, “AQueous” for “AQueous,”, “Assay,” for “Assay;”, “following formula: [formula]” for “formula set forth above.”
According to this method, “synergy” is indicated by a Cl of less than 1, “addition” by a Cl equal to 1, and “antagonism” by a Cl greater than 1. A Cl of less than 0.3 is considered to represent “strong synergism”, and a Cl greater than 3.3 is considered to represent “strong antagonism”.

[11] = biological target: soluble Fas ligand (sFasL) in supernatants of anti-CD3/IL-2 activated-expanded T cells (human) (UniProt P48023); test: cell-based or functional assay
Chain of soluble Fas ligand (sFasL) in supernatants of anti-CD3/IL-2 activated-expanded T cells (human) (P48023 130-281 limits assumed): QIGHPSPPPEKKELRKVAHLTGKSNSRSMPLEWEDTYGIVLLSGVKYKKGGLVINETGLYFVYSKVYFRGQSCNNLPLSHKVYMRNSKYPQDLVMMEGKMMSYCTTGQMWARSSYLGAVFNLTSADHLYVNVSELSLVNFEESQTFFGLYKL

[12] = tested on: SW480 cells; test: Proliferation assay (MTS), SW480; type: cell-based, human; settings: Table 13; supernatant 25% v/v; IFN-γ, TNF-α 1,000 U/ml; antibodies 10 μg/ml
Description: as §3, with “Unstimulated and stimulated supernatants, as well as the expansion media, were added at a range of volumes to SW480, LS174T, or Jurkat cells or cultured in their maintenance media in 24-well plates for 96 hours. MTS” for “MTS”, “(CelTiter,” for “(CeiTiter”, “AQueous” for “AQueous,”, “Assay,” for “Assay;”, “following formula: [formula]” for “formula set forth above.”

Molecule: CCc1c2c(nc3ccc(OC(=O)N4CCC(N5CCCCC5)CC4)cc13)-c1cc3c(c(=O)n1C2)COC(=O)[C@]3(O)CC [CPT, Irinotecan HCl]
- topoisomerase I-DNA complexes signal ([1]; Time 1 hrs): 3.93 ng or topoisomerase I per ml of DNA
- topoisomerase I-DNA complexes signal ([1]; Time 12 hrs): 4.83 ng or topoisomerase I per ml of DNA
- topoisomerase I-DNA complexes signal ([1]; Time 48 hrs): 5.37 ng or topoisomerase I per ml of DNA
- CD95 [2]: 13
- Caspase-3 ([3]; LS513 Cells): 0.12
- Caspase-3 ([3]; SW480 Cells): 0.12
- Caspase-8 ([4]; LS513 Cells): 0.11
- Caspase-8 ([4]; SW480 Cells): 0.11
- CD95 [5]: 13

Molecule: CC/C(=C(\c1ccccc1)c1ccc(OCCN(C)C)cc1)c1ccccc1 [Tamoxifen]
- CD95 ([6]; Table 27, SKBR3 cells): 11
- CD 95 Cells ([6]; Table 29, SKBR3, CD95 mean cell fluorescence, Factor C 5% v/v): 1.8
- inhibition at 10 µg/mL ([7]; SK-BR-3, Table 28, blocking antibody 50 μg/ml): 32%
- inhibition at 10 µg/mL ([7]; SK-BR-3, Table 29): 44.5%
- F1 ([7]; Table 27, SKBR3 cells): 0.28
- Caspase-8 [8]: 0.01
- Caspase-3 [9]: 0.12

Molecule: CC[C@@]1(O)C(=O)OCc2c1cc1n(c2=O)Cc2cc3c(CN(C)C)c(O)ccc3nc2-1 [TPT, Topotecan]
- inhibition at 1 µg/mL [10]: 51%

B1: anti-FasL antibody NOK1 (antibody, from another filing, V domains shown)
VH: VQLQESGPELVKPGASVKISCKASGYAFSSSWMNWVKQRPGKGLEWIGRIYPGDGDTNDNGKFKGKATLTADKSSSTAYMQLSSLTSEDSAVYFCARSYYYDGSPWFTYWGQGTTVTVSS
VL: DIQMTQSPSSLSASLGDRVTISCRASQDISNYLNWYQQKPDGTVKLLIYYTSRLHSGVPSRFSGSGSGTDYSLTISNLEPEDIATYFCQQYSEFPWTFGGGTKLEIKR
- Fractional Inhibition - Run 1, Supernatant + anti-FasL (supernatant alone 0.36) [11]: 0.15
- Fractional Inhibition - Run 2, Supernatant + anti-FasL (supernatant alone 0.41) [11]: 0.21
- Fractional Inhibition, Sup + TPT + anti-FasL on LS513 cells (Sup + TPT alone 0.84) [11]: 0.69

B2: IFN: human recombinant IFN-γ (protein, UniProt P01579 24-161, looked up)
Interferon gamma: QDPYVKEAENLKKYFNAGHSDVADNGTLFLGILKNWKEESDRKIMQSQIVSFYFKLFKNFKDDQSIQKSVETIKEDMNVKFFNSNKKKRDDFEKLTNYSVTDLNVQRKAIHELIQVMAELSPAAKTGKRKRSQMLFRG
- Fractional Inhibition - Run 1 [12]: 0.01
- Fractional Inhibition - Run 2 [12]: 0.011
